The record followed here is article PMC10287695, “Non-covalent inhibitors of thioredoxin glutathione reductase with schistosomicidal activity in vivo” (Nature Communications, 2023).

One may read the inhibition as the relative decrease from the control value, in per cent.

Where “and” joins values, the source holds several entries; their conditions need not be identical. Equal values may be shown once. Read-outs that look alike come from different tables or passages of the source.

Holding throughout (format): biochemical
Assay [1] has as its target BmTrxR (Brugia malayi, UniProt A0A1I9G0T9). As to the kind of experiment: B. malayi TrxR enzyme inhibition. The note with it: for inhibition at 10 µM: 10 µM compound; for inhibition at 25 µM: 25 µM compound. An outline of the steps: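 Recombinant, purified BmTrxR in a DTNB reduction assay: reaction started with an equal volume of DTNB (6 mM) and NADPH (100 µM), and the A412 increase over the first 3 min recorded. Run in triplicate; IC50 from curve fitting.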

Assay [2] deals with T1, TGR (Schistosoma mansoni, UniProt Q962Y6).
T1 construct: made in house
T1 sequence (Q962Y6 1-598): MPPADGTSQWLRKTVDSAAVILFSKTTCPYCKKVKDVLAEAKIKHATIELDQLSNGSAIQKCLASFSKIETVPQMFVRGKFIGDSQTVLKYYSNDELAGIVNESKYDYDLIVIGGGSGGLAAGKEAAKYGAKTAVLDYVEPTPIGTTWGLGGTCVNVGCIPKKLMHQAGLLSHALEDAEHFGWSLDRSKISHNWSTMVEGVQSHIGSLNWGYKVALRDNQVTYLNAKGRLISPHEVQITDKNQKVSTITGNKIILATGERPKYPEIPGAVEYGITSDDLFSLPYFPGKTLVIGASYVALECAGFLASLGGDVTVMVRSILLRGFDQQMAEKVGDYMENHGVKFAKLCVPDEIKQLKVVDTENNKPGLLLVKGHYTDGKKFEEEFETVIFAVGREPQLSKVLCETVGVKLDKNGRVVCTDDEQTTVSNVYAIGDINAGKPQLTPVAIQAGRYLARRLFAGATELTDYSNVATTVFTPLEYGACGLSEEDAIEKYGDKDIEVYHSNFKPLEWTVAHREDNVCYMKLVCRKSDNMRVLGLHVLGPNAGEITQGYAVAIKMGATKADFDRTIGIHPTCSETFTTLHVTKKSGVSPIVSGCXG
As to the kind of experiment: Reversibility by jump dilution. The note with it: for % Activity (ID list), D0 / % Inhibition (ID list), D0: D0: diluted 1:100, activity determined immediately; for % Activity (ID list), D60 / % Inhibition (ID list), D60: D60: diluted 1:100, activity determined after 60 min; for Inhibitor (rate), 0 min / % Activity, 0 min: [0, D0]: 15 min preincubation inhibitor + TGR + NADPH, diluted 1:100, then activity determined immediately; for Inhibitor (rate), 0 min / Inhibitor (rate), 60 min / Inhibitor (rate), -15: raw rate; for % Activity, 0 min / % Activity, 60 min / % Activity, -15: relative to DMSO; for Inhibitor (rate), 60 min / % Activity, 60 min: [60, D60]: 15 min preincubation inhibitor + TGR + NADPH, diluted 1:100, then activity determined after 60 min; for Inhibitor (rate), -15 / % Activity, -15: [-15]: 15 min preincubation inhibitor + TGR + NADPH, then activity determined, replicates. The method, then:
A reaction of 370 nM TGR, 100 µM NADPH, and 250 µM inhibitor was incubated for 15 min at room temperature. A 100x dilution of the reaction was made and the activity was determined immediately and after 60 min.

In assay [3] the target is T2, PfTrxR (Plasmodium falciparum, UniProt Q25861).
T2 construct: 6-His (N); made in house; host or cells: E. coli BL21 (DE3)
T2 sequence (Q25861 1-541): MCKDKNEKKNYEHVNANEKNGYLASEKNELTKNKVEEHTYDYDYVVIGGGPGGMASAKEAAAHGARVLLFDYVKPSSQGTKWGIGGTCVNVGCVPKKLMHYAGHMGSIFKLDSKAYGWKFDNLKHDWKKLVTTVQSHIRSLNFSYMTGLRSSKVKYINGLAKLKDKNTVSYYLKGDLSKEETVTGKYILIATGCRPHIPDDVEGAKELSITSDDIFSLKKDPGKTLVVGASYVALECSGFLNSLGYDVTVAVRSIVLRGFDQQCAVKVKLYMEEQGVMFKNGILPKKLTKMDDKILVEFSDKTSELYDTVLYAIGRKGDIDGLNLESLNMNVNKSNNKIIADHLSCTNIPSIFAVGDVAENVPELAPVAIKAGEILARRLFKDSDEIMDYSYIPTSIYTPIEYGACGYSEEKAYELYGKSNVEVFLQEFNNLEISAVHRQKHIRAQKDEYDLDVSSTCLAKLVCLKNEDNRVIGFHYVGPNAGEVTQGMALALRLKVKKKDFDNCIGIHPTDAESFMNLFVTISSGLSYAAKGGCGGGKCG
As to the kind of experiment: P. falciparum TrxR enzyme inhibition.

In assay [4] the target is T1, TGR. As to the kind of experiment: Time dependence of inhibition. The note with it: panel c, replicates; for TGR activity relative to dmso, time 0: time 0 (time unit not given); for TGR activity relative to dmso, time 5: time 5 (time unit not given); for TGR activity relative to dmso, time 10: time 10 (time unit not given); for TGR activity relative to dmso, time 15: time 15 (time unit not given); for TGR activity relative to dmso, time 30: time 30 (time unit not given). The protocol:
TGR was incubated at room temperature (up to 6 h) and at 4 °C for 6 to 24 h with 50 µM inhibitor and 100 µM NADPH for the indicated times. Then DTNB (3 mM) and NADPH (100 µM) were added, and the reaction was monitored at A412 for 5 min. The assay was done in triplicate.

Setting [5] is: BmTrxR, mean of 3 replicates, read-out: % inhibition.
The mark [6] stands for this setting: BmTrxR, 50 µM compound, mean of 3 replicates, read-out: % inhibition.
Where [7] appears, read: read-out: BmTrxR % inhibition at 50 µM, 50 µM, the highest concentration tested.
Setting [8] is: before dilution (-15), list for plotting.

Sequence of BmTrxR (A0A1I9G0T9 entry or part of it, added parts left off): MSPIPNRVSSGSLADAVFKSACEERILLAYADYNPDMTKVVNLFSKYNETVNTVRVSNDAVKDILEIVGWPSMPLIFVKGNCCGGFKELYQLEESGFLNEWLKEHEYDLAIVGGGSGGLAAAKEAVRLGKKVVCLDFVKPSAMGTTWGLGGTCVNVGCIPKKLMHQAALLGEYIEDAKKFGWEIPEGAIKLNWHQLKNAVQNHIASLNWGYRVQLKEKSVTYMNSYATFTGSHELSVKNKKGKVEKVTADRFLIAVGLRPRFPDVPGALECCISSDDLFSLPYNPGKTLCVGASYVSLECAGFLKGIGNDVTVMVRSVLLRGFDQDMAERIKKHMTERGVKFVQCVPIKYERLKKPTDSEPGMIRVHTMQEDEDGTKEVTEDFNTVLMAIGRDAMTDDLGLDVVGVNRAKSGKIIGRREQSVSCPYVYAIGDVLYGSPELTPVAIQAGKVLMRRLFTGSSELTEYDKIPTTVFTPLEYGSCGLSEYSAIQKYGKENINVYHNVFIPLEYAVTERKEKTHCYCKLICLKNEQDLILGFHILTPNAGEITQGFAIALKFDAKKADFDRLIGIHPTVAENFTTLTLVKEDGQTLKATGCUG

As for `Cc1oc(C2CCCCC2)nc1C(=O)N[C@@H]1C[C@@H]2C[C@H]([C@H]1C)C2(C)C` [Compound 7], in assay [1] (setting [5]), the inhibition at 10 µM is -2.13% and the inhibition at 25 µM was -0.458%. The inhibition at 50 µM in assay [1] (setting [6]) was -0.00455%. For the same molecule, the inhibition at 50 µM in assay [1] (setting [7]) turned out to be 11%. In assay [2] (list for plotting), the “% Activity (ID list), D0” value was 98.5% and 102.6% and 100.0%; the “% Inhibition (ID list), D0” value was 1.5% and -2.6%; the “% Activity (ID list), D60” value is 100.2% and 98.4% and 96.1%; the “% Inhibition (ID list), D60” value is -0.17% and 1.6% and 3.9%. Besides, in assay [2], the “Inhibitor (rate), 0 min” value is 0.04944 and 0.05279; the “% Activity, 0 min” value was 98.4664% and 102.604%; the “Inhibitor (rate), 60 min” value was 0.04706 and 0.04925 and 0.04684; the “% Activity, 60 min” value was 100.17% and 98.4213% and 96.1018%. Besides, in assay [2], the “Inhibitor (rate), -15” value was 0.001091 and 8.088e-5 and -1.437e-5; the “% Activity, -15” value is 2.42% and 0.1757%. Further, in assay [2] (setting [8]), the “% Activity (ID list)” value was 2.4% and 0.2% and -0.3%; the “% Inhibition (ID list)” value is 97.6% and 99.8% and 100.3%. In addition, in assay [3], the inhibition at 10 µM is -0.315%, the inhibition at 25 µM worked out at 4.13% and the inhibition at 50 µM was 10.8%. In assay [4], the “TGR activity relative to dmso, time 0” value is 10.9848 and 15.3969 and 9.648; the “TGR activity relative to dmso, time 5” value is 3.59 and 2.532 and 3.143; the “TGR activity relative to dmso, time 10” value is 6.629 and 6.846 and 6.371; the “TGR activity relative to dmso, time 15” value was 7.462 and 7.906 and 7.375. Besides, the “TGR activity relative to dmso, time 30” value in assay [4] is 9.0362 and 7.137 and 8.678.

Turning to `C[C@@H]1[C@H]2C[C@@H](C[C@H]1NCc1nc3ccccc3n1C1CCCCCC1)C2(C)C` [Compound 8], in assay [1] (setting [5]), the inhibition at 10 µM amounted to 17.7% and the inhibition at 25 µM is 43.3%. Besides, the inhibition at 50 µM in assay [1] (setting [6]) came out at 68.2%. Also, in assay [1] (setting [7]), the inhibition at 50 µM is 67.7%. For the same molecule, in assay [2] (list for plotting), the “% Activity (ID list), D0” value was 90.8% and 93.4% and 92.5%; the “% Inhibition (ID list), D0” value was 9.2% and 6.6% and 7.5%; the “% Activity (ID list), D60” value is 93.9% and 90.9% and 93.8%; the “% Inhibition (ID list), D60” value was 6.1% and 9.1% and 6.2%. Further, in assay [2], the “Inhibitor (rate), 0 min” value is 0.05404 and 0.05709 and 0.05725; the “% Activity, 0 min” value is 90.8083% and 93.3911% and 92.5327%; the “Inhibitor (rate), 60 min” value is 0.05102 and 0.05246 and 0.05311; the “% Activity, 60 min” value was 93.9422% and 90.9343% and 93.8339%. Also, in assay [2], the “Inhibitor (rate), -15” value is 0.005946 and 0.01664 and 0.01823; the “% Activity, -15” value was 12.3643% and 34.0704% and 37.3107%. The “% Inhibition (ID list)” value in assay [2] (setting [8]) is 77.7% and 75.9% and 68.7%. In assay [3], the inhibition at 10 µM was -0.482%, the inhibition at 25 µM was -0.643% and the inhibition at 50 µM is -0.523%. Moreover, in assay [4], the “TGR activity relative to dmso, time 0” value was 81.9258 and 91.2824 and 94.0371; the “TGR activity relative to dmso, time 5” value was 16.4661 and 22.6942 and 32.7859; the “TGR activity relative to dmso, time 10” value was 10.3137 and 9.575 and 9.146; the “TGR activity relative to dmso, time 15” value was 4.106 and 4.258 and 6.77. The “TGR activity relative to dmso, time 30” value in assay [4] was 0.4436 and 0.7059 and 0.3756.
